# Entries after “also recorded” stand apart in the source; their conditions may differ.
# Tests used:
# [1] = In situ calcium ion-selective electrode (ISE) measurement of COM crystallization; settings: for percent reduction in COM growth rate: 20 μg/ml additive, supersaturated calcium oxalate S=5.4, stirred, ISE slope in first 40 min vs control
# Experimental: The COM growth rate was measured as the slope (dCa/dt) of decreasing Ca^2+ concentration within the first 40 min of crystallization. […] The percent reduction in COM growth rate was calculated by comparing the ISE slopes of peptides and control using the formula, Percent Reduction=[1−(dCa/dt)peptide/(dCa/dt)control]×100%. Data are averages of 2 or 3 measurements (error bars equal two standard deviations);
# COM crystals for bulk crystallization studies were synthesized using a reported procedure that produces micron-sized crystals with large basal (100) surfaces. COM crystals prepared with molar composition 0.7 mM CaCl2: 0.7 mM Na2C2O4: 150 mM NaCl are referred to as the control. Growth solutions prepared with peptides used 20 μg/ml of the additive (unless otherwise stated).
# As such, measurements reported herein were conducted at a single peptide concentration (20 μg/ml) to assess COM growth inhibition. To facilitate comparison of peptides in Table 1, Applicants calculated the percent reduction in COM growth rate using the relative difference in ISE slopes (units of ppm Ca^2+ per time) for peptide and control samples during the first 40 min of crystallization.
# The slope of ISE curves (FIG. 2A) is the temporal change in free Ca^2+ concentration due to COM nucleation (primary and secondary) and crystal growth. Deconvoluting these two processes (nucleation and growth) from ISE data is nontrivial, particularly if one wishes to extract detailed kinetic information of COM growth rates. […] In the current study, the distinct advantage of ISE compared to more traditional approaches is its ease of use and the rapid time for data acquisition that enables high-throughput analysis of large peptide libraries.
# A quantitative comparison of peptide efficacy for inhibiting COM crystallization was performed using in situ ISE measurements. The percent inhibition in COM growth rate was calculated using the relative difference in ISE slopes in the presence of 20 μg/mL peptide. […] The effect of Asp with Glu in peptide sequences was measured on COM growth inhibition (Table 2).
# [2] = Wang et al. [11]; similar citrate concentration, lower supersaturation S=1.3; cited from earlier work
# [3] = Kinetic studies of COM growth at 60° C. using the calcium assay over 24 hours; settings: 20 μg/mL peptide, 24-hour period
# Experimental: A second library of peptides containing glutamic acid (E) and alanine (A) amino acids was synthesized. The sequences of E-peptides shown in Table 2 were used in bulk crystallization studies and kinetic studies to assess their role as growth inhibitors or promoters of COM crystallization. […] These analyses were performed using the calcium assay to track the kinetics of crystallization over a 24-hour period. The calcium ion concentration in the supernatant solution was assessed at periodic times.
# (§1) Free calcium concentration in the crystallization solution was measured by a colorimetric assay using Quantichrome DICA 500 Calcium assay kit (BioAssay Systems, Hayward, Calif.). Standard solutions (0, 0.1, 0.2, 0.3, 0.4, 0.5, and 1 mM) were prepared using calcium solutions provided with the kit. Detection reagent was prepared by mixing equal volumes of reagent A and reagent B according to manufacturer's instructions. A 10 μL sample was withdrawn from the top of each crystallization well without disturbing the bottom and dispensed into a 96-well microplate. 100 μL of detection reagent was added to each well and incubated for 3 minutes at room temperature. The absorbance was measured at 612 nm using Biotek Synergy H4 microplate reader (BioTek, Winooski, Vt.). Calcium concentration was determined using a calibration curve prepared from standard calcium solutions.
# [4] = High-throughput colorimetric calcium depletion assay (crystallization half-time); settings: 37° C., crystallization volume 600 μL, shaking; logistic fit
# Experimental: as §1
# Time course of depletion of free calcium in the crystallization solution, normalized to the initial concentration, was fitted to a nonlinear logistic function using OriginPro Software (Origin Lab, Northhampton, Mass.). The logistic function relating calcium concentration to time is given by
# where [Ca]t is the normalized calcium concentration at time t, A1 is the normalized initial supersaturation concentration (i.e at t=0), A2 is the normalized equilibrium concentration (i.e. at t=∞), p is the hill coefficient which represents slope of the curve at midpoint, and t1/2 is the crystallization half-time (CHT), defined as the time at which crystallization is 50% complete (i.e. [Ca]t1/2=[…]). A1 was fixed at 1, and A2, p and t1/2 were obtained from fitting the data to equation 1. CHT was used as a measure of inhibition potentials of the peptides. A one-way ANOVA in combination with Tukey post hoc test at p<0.05 level was used to probe statistical significance. Applicants' studied the effects of experimental parameters including volume, shaking and temperature on crystallization in designing a high-throughput screening assay. Applicants have shown the logistic model effectively represents the three phases: induction, crystal growth and equilibrium observed in our setup, and CHT (t1/2) can be used as a measure of efficacy of potential crystal growth modifiers. The peptide library screened comprised of Asp and Ala residues (peptides D1-D13) at optimized assay conditions of 37° C., crystallization volume of 600 μL in a shaking environment. […] The high throughput of the assay provides the opportunity to assess the growth modulation potential of crystal growth modifiers at varying modifier concentrations, supersaturations and ionic strengths with relative ease. […] Finally, the assay can be translated to other crystallization systems in a relatively straightforward fashion for rational design and discovery of growth modifiers for specific applications.
# [5] = Bulk crystallization studies of COM crystal size and habit (optical microscopy, SEM, AFM)
# Experimental: FIGS. 4A-4B show macroscopic characterization of COM crystals from bulk crystallization in solutions of 0.5 mM CaC2O4 and 20 μg/ml peptide. Optical microscopy was used to measure: Percent distribution of elongated hexagonal platelet (shaded bars) and diamond platelet (pattern bars) crystal morphologies (FIG. 4A); and length of the COM (100) basal surface measured along the direction (i.e. apical tip-to-tip distance) for hexagonal and diamond morphologies (FIG. 4B). Data in (FIG. 4A) and (FIG. 4B) are the average of three separate crystallization experiments performed at 60° C. for 3 days (error bars equal one standard deviation). Data for peptide D4 (diamond habit) was omitted based on too few crystals for statistical analysis;
# COM crystals for bulk crystallization studies were synthesized using a reported procedure that produces micron-sized crystals with large basal (100) surfaces. COM crystals prepared with molar composition 0.7 mM CaCl2: 0.7 mM Na2C2O4: 150 mM NaCl are referred to as the control. Growth solutions prepared with peptides used 20 μg/ml of the additive (unless otherwise stated). The crystals were characterized by optical microscopy using a Leica DM2500-M microscope, scanning electron microscope (SEM) using a FEI 235 Dual-Beam Focused Ion-beam instrument, atomic force microscopy (AFM) using an Asylum MFP-3D-SA instrument (Santa Barbara, Calif.), and a calcium ion-selective electrode (ISE, ThermoScientific).
# ISE measurements can be used to screen peptide efficacy, but provide little information regarding the specificity of peptide binding to different surfaces of COM crystals. To this end, Applicants used a second analysis step to identify the effect of peptides on COM crystal size and habit. The influence of the peptide library on macroscopic properties of COM crystals was assessed using bulk crystallization studies and optical and scanning electron microscopy to characterize COM crystals grown in the presence of peptides. In vitro, COM crystallization yields elongated hexagonal platelets with {100} basal surfaces bounded by {010} and crystallographically equivalent {121} apical surfaces (FIG. 3A). […] Applicants observed that multiple peptides in the library reduced growth along the directions, which decreased the crystal aspect ratio (length-to-width) and shifted the morphology from hexagonal to diamond platelets. This change in crystal habit can be attributed to the preferential binding of peptides to COM {121} surfaces, which slows growth along the naturally fast growth directions within the (100) plane.
# To more systematically assess the surface topography of COM crystals, Applicants used atomic force microscopy (AFM) to probe the effect of peptides on COM (100) surface roughness. Crystals extracted from control and peptide D5 batches were prepared on AFM sample disks and imaged in air. The RMS roughness for (100) surfaces of hexagonal-shaped crystals from the control and test peptide D5 were approximately 1.0 and 4.3 nm, respectively.
# Crystal batches prepared in bulk studies were analyzed using optical microscopy to quantify changes in COM crystal size and aspect ratio. […] Although there were clear differences in the percent population of diamond-shaped crystals among peptides tested in this study, Applicants observed that the size of diamond crystals were generally the same, irrespective of peptide sequence (FIG. 4B). The majority of COM hexagonal platelets in peptide samples had similar size and aspect ratio as the control (here Applicants only report the length of COM crystals in FIG. 4B). A notable exception, however, was peptide D4, which produced a 22% increase in the length-to-width aspect ratio of COM hexagonal crystals, and an increase in the length from 35 μm (control) to 75 μm (peptide D4).
molecule,measurement,setting,value
"O=C(O)CC(O)(CC(=O)O)C(=O)O [citrate, reference compound]",percent reduction in COM growth rate,[1],28±6%
same,reduction in COM growth rate,[2],48%
A-E-A-E-A-E-A-E-A-E-A-E-A-E-A-E-A-E (AEAEAEAEAEAEAEAEAE; Synthesized Calcium oxalate monohydrate inhibitory polypeptide) [E10],inhibition of COM crystal growth (calcium in supernatant over time),[3],inhibition of COM crystal growth; also recorded: more effective inhibitor than E11
ADAADAADAADAADAADA (Synthesized Calcium oxalate monohydrate inhibitory polypeptide) [D4],percent reduction in COM growth rate,[1],20%
same,% inhibition,"[1]; ISE slopes in the presence of 20 μg/mL peptide, comparison X = D vs X = E",21 ± 10%
same,"CHT (hr), crystallization half-time",[4],4.432 h
same,[001] length of COM hexagonal crystals,"[5]; 20 μg/ml peptide, control 35 μm",75 μm
same,increase in the length-to-width aspect ratio of COM hexagonal crystals,"[5]; 20 μg/ml peptide, vs control (2.67±0.05)",22%
same,COM crystal habit / morphology,"[5]; SEM, bulk crystallization with 20 μg/ml peptide",higher length-to-width aspect ratio
ADAADDAADAADDAAAAA (Synthesized Calcium oxalate monohydrate inhibitory polypeptide) [D5],percent reduction in COM growth rate,[1],30%
same,"CHT (hr), crystallization half-time",[4],4.641 h
same,percentage of diamond-shaped crystals in total crystal population,"[5]; 20 μg/ml peptide, 60° C. for 3 days, optical microscopy, average of three experiments",largest populations of diamond-shaped crystals
same,RMS roughness of diamond-shaped crystals,[5]; AFM imaged in air,3.2 nm
same,RMS roughness of (100) surfaces of hexagonal-shaped crystals,"[5]; AFM imaged in air, control approximately 1.0 nm",~4.3 nm
E-E-E-E-E-E-E-E-E-E-E-E-E-E-E-E-E-E (EEEEEEEEEEEEEEEEEE; Synthesized Calcium oxalate monohydrate inhibitory polypeptide) [E11],inhibition of COM crystal growth (calcium in supernatant over time),[3],inhibition of COM crystal growth
